29 compounds from patent US8697739B2, “Bicyclic acetyl-CoA carboxylase inhibitors and uses thereof” (Novartis AG, priority 2010, dated 2014) can be followed below.

Broadly, the IC50 is the concentration needed to halve the response being measured.

Where only a bound is given, the exact number is not on record here.

The target in this assay is T1, human acetyl-CoA carboxylase 2 (ACC2) (Homo sapiens, UniProt O00763).
T1 construct: The cDNA encoding amino acids 144 to 2458 of human acetyl-CoA carboxylase 2; made in house; host or cells: Sf9 insect cells (baculovirus, pFastBac1)
T1 sequence (O00763 144-2458): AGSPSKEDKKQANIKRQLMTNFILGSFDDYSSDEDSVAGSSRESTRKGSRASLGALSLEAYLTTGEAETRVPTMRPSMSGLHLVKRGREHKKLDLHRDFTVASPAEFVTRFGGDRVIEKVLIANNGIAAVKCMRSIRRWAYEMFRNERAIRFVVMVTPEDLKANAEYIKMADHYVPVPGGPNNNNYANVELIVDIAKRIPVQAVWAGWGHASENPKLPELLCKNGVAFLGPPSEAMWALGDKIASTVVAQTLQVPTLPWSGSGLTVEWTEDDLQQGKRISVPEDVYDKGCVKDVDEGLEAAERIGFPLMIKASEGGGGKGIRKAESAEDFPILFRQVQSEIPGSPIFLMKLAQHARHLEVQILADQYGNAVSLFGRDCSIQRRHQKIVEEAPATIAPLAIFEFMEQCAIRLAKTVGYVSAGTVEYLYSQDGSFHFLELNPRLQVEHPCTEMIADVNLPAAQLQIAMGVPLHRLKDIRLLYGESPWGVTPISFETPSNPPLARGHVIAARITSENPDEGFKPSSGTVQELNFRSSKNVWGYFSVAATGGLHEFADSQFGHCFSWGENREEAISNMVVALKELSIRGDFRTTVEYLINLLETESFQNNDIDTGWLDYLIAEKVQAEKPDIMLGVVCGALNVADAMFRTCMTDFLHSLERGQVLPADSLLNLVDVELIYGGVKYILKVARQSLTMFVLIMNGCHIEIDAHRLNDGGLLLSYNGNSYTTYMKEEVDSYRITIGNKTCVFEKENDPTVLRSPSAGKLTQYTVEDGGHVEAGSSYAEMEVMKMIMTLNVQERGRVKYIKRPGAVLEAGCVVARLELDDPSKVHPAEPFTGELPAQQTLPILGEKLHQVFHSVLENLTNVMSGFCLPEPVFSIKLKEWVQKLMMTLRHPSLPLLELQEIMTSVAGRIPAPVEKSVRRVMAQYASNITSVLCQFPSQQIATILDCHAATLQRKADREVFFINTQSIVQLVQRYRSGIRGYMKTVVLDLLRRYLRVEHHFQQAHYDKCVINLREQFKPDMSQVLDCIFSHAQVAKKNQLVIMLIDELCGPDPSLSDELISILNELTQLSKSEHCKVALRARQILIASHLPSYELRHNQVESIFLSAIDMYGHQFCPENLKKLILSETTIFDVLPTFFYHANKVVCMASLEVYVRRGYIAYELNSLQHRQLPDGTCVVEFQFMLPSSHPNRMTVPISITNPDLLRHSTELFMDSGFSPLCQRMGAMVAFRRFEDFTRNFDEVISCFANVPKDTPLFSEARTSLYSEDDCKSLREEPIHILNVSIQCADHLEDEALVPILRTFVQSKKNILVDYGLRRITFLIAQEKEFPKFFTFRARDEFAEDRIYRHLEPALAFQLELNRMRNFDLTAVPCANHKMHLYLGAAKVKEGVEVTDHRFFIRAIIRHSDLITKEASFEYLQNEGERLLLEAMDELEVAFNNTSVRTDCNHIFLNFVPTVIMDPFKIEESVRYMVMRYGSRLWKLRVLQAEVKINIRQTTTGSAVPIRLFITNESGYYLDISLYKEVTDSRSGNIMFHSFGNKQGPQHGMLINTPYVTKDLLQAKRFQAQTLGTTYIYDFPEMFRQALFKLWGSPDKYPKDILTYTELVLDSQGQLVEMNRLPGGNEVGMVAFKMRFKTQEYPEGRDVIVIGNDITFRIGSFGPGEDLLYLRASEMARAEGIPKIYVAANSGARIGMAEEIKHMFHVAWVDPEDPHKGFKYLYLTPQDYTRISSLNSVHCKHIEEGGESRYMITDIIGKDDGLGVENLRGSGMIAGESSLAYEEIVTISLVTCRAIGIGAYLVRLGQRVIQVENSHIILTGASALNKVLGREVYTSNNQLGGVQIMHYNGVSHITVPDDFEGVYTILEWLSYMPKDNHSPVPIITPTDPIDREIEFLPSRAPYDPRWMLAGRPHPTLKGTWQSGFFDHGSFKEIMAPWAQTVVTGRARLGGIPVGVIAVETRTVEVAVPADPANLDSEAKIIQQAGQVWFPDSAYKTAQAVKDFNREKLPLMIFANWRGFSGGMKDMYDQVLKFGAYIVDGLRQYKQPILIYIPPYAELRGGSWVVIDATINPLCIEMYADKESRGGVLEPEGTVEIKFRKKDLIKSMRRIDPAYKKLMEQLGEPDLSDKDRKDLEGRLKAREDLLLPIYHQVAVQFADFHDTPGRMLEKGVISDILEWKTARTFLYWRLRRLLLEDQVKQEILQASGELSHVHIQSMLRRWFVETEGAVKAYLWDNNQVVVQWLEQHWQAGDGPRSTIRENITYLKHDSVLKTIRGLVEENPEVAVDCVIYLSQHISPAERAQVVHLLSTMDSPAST
Put plainly: Acetyl-CoA carboxylase enzyme assay (malonyl-CoA formation by LC/MS/MS). As to conditions: recombinant human ACC2 (aa 144-2458); read-out: IC50 ACC2. It counts as biochemical. In short, it runs like this:
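Malonyl-CoA formation was read by LC/MS/MS MRM against a [13C3]-malonyl-CoA internal standard, after acetic acid quench. The enzyme was baculovirus/Sf9-expressed human ACC2 residues 144–2458, given 15 minutes room-temperature compound preincubation in HEPES pH 7.5 buffer with MgCl2, citrate and DTT. Substrate solution held 50 μM acetyl-CoA, 120 μM ATP and 2 mM KHCO3.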
`O=C([C@H]1CC[C@H](NS(=O)(=O)c2cnc3ccccc3c2)CC1)N1CCNC[C@@H]1c1ccccc1` [Example 85, N-((1S,4r)-4-((S)-2-phenylpiperazine-1-carbonyl)cyclohexyl)quinoline-3-sulfonamide]: the IC50 turned out to be 143 nM.

`Cn1c(-c2ccccc2)cc2cc(S(=O)(=O)N[C@H]3CC[C@H](C(=O)N[C@@H](c4ccccc4)C(C)(C)C(=O)O)CC3)ccc21` [Example 97, (S)-2,2-dimethyl-3-((1r,4S)-4-(1-methyl-2-phenyl-1H-indole-5-sulfonamido)cyclohexanecarboxamido)-3-phenylpropanoic acid]: the IC50 was under 10 nM.

Regarding `C[C@@H](NC(=O)[C@H]1CC[C@H](NS(=O)(=O)c2ccc3c(c2)ncn3C)CC1)c1ccc(F)cc1` [Example 109, (1r,4R)-N-((R)-1-(4-fluorophenyl)ethyl)-4-(1-methyl-1H-benzo[d]imidazole-5-sulfonamido)cyclohexanecarboxamide], the IC50 was found to be 321 nM.

`CC(C)COC(=O)N1CCNc2ccc(S(=O)(=O)N[C@H]3CC[C@H](C(=O)N[C@H](C)c4ccc(F)cc4)CC3)cc21` [Example 217, isobutyl 7-(N-((1R,4r)-4-((R)-1-(4-fluorophenyl)ethylcarbamoyl)cyclohexyl)sulfamoyl)-3,4-dihydroquinoxaline-1(2H)-carboxylate]: the IC50 turned out to be 15 nM.

Regarding `CCOC(=O)C1(C)CCC(NS(=O)(=O)c2ccc3c(ccn3C)c2)CC1` (centres unmarked) [Example 391, ethyl 1-methyl-4-(1-methyl-1H-indole-5-sulfonamido)cyclohexanecarboxylate], the IC50 was 760 nM.

Take `C[C@@H](NC(=O)[C@H]1CC[C@H](NS(=O)(=O)c2cnc3c(c2)N(C)CCO3)CC1)c1ccc(F)cc1` [Example 131, (1r,4R)-N-((R)-1-(4-fluorophenyl)ethyl)-4-(1-methyl-2,3-dihydro-1H-pyrido[2,3-b][1,4]oxazine-7-sulfonamido)cyclohexanecarboxamide]: the IC50 was 173 nM.

Regarding `C[C@@H](NC(=O)[C@H]1CC[C@H](NS(=O)(=O)c2ccc3[nH]c(-c4cccnc4)nc3c2)CC1)c1ccccc1` [Example 281, (1r,4R)-N-((R)-1-phenylethyl)-4-(2-(pyridin-3-yl)-1H-benzo[d]imidazole-5-sulfonamido)cyclohexanecarboxamide], the IC50 came to 11 nM.

In the case of `C[C@@H]1CCCN1C(=O)[C@H]1CC[C@H](NS(=O)(=O)c2ccc3[nH]c(-c4ccccc4)nc3c2)CC1` [Example 125, N-((1R,4r)-4-((R)-2-methylpyrrolidine-1-carbonyl)cyclohexyl)-2-phenyl-1H-benzo[d]imidole-5-sulfonamide], the IC50 was found to be 58 nM.

As to `C[C@@H](NC(=O)[C@H]1CC[C@H](NS(=O)(=O)c2ccc3c(c2)Cc2ccccc2-3)CC1)c1ccc(F)cc1` [Example 226, (1r,4R)-4-(9H-fluorene-2-sulfonamido)-N-((R)-1-(4-fluorophenyl)ethyl)cyclohexanecarboxamide], the IC50 was 10 nM.

Consider `CC(C)OC(=O)c1ccc(NS(=O)(=O)c2ccc3nc(-c4ccc(S(C)(=O)=O)cc4)[nH]c3c2)cc1` [Example 514, isopropyl 4-(2-(4-(methylsulfonyl)phenyl)-1H-benzo[d]imidazole-6-sulfonamido)benzoate], for which the IC50 was 838 nM.

Regarding `CN1CCN(c2ccc(-c3nc4cc(S(=O)(=O)Nc5ccc(-c6nnc(C(C)(C)C)o6)cc5)ccc4[nH]3)cc2)CC1` [Example 592, N-(4-(5-tert-butyl-1,3,4-oxadiazol-2-yl)phenyl)-2-(4-(4-methylpiperazin-1-yl)phenyl)-1H-benzo[d]imidazole-5-sulfonamide], the concentration for half-maximal inhibition (IC50) was determined as 415 nM.

In the case of `CC1CN(C(=O)[C@H]2CC[C@H](NS(=O)(=O)c3ccc4[nH]c(-c5ccccc5)nc4c3)CC2)CC(C)O1` (some centres unmarked) [Example 620, N-((1r,4r)-4-(2,6-dimethylmorpholine-4-carbonyl)cyclohexyl)-2-phenyl-1H-benzo[d]imidazole-5-sulfonamide], the IC50 was determined as 58 nM.

Turning to `Cn1c(-c2ccc(CCC(=O)O)cc2)cc2ccc(S(=O)(=O)N[C@H]3CC[C@H](C(=O)N4CCC[C@@H]4C(C)(C)C)CC3)cc21` [Example 400, 3-(4-(6-(N-((1R,4r)-4-((R)-2-tert-butylpyrrolidine-1-carbonyl)cyclohexyl)sulfamoyl)-1-methyl-1H-indol-2-yl)phenyl)propanoic acid], the IC50 was under 10 nM.

As to `Cc1cc(CO)ccc1-c1cc2ccc(S(=O)(=O)N[C@H]3CC[C@H](C(=O)N4CCN(C(=O)OC(C)(C)C)CC4)CC3)cc2[nH]1` [Example 310, tert-butyl 4-((1r,4r)-4-(2-(4-(hydroxymethyl)-2-methylphenyl)-1H-indole-6-sulfonamido)cyclohexanecarbonyl)piperazine-1-carboxylate], the IC50 was determined as 62 nM.

Regarding `CC(=O)c1ccc(-c2nc3ccc(S(=O)(=O)Nc4ccc(C(=O)OC(C)C)cc4)cc3[nH]2)cc1` [Example 495, isopropyl 4-(2-(4-acetylphenyl)-1H-benzo[d]imidazole-6-sulfonamido)benzoate], the IC50 came out at 990 nM.

`CC(C)(C)c1nnc([C@H]2CC[C@H](NS(=O)(=O)c3ccc4[nH]c(Nc5cccnc5)nc4c3)CC2)o1` [Example 654, N-((1r,4r)-4-(5-tert-butyl-1,3,4-oxadiazol-2-yl)cyclohexyl)-2-(pyridin-3-ylamino)-1H-benzo[d]imidazole-5-sulfonamide]: the IC50 was 158 nM.

Consider `Cc1ccccc1-c1cc2ccc(S(=O)(=O)NC3CCC(C(=O)N4CCOCC4c4ccccc4)CC3)cc2[nH]1` [Example 327, N-((1S,4r)-4-((S)-3-phenylmorpholine-4-carbonyl)cyclohexyl)-2-o-tolyl-1H-indole-6-sulfonamide], for which the IC50 is under 10 nM.

For the compound `Cn1c(-c2ccccc2)cc2cc(S(=O)(=O)N[C@H]3CC[C@H](C(=O)N[C@@H](c4ccccc4)C(C)(C)O)CC3)ccc21` [Example 15, (1r,4S)—N—((S)-2-hydroxy-2-methyl-1-phenylpropyl)-4-(1-methyl-2-phenyl-1H-indole-5-sulfonamido)cyclohexanecarboxamide], the IC50 was under 10 nM.

As to `CCC1(CC)CN(C(=O)[C@H]2CC[C@H](NS(=O)(=O)c3ccc4cc(-c5ccccc5)n(C)c4c3)CC2)CCO1` [Example 424, N-((1r,4r)-4-(2,2-diethylmorpholine-4-carbonyl)cyclohexyl)-1-methyl-2-phenyl-1H-indole-6-sulfonamide], the IC50 is 50 nM.

As for `COC(=O)CCc1ccc(-c2cc3ccc(S(=O)(=O)N[C@H]4CC[C@H](C(=O)N5CCCC5c5ccc(F)cc5)CC4)cc3n2C)cc1` (some centres unmarked) [Example 386, methyl 3-(4-(6-(N-((1r,4r)-4-(2-(4-fluorophenyl)pyrrolidine-1-carbonyl)cyclohexyl)sulfamoyl)-1-methyl-1H-indol-2-yl)phenyl)propanoate], the IC50 was determined as 25 nM.

On to `CC(C)[C@H](N)C(=O)OCc1ccc(-c2cc3ccc(S(=O)(=O)N[C@H]4CC[C@H](C(=O)N[C@H](C)c5ccc(F)cc5)CC4)cc3[nH]2)cc1` [Example 27, (S)-4-(6-(N-((1R,4r)-4-((R)-1-(4-fluorophenyl)ethylcarbamoyl)cyclohexyl)sulfamoyl)-1H-indol-2-yl)benzyl 2-amino-3-methylbutanoate], for which the IC50 is under 10 nM.

With `O=C(NCCc1cccnc1)[C@H]1CC[C@H](NS(=O)(=O)c2ccc3[nH]c(-c4ccccc4)nc3c2)CC1` [Example 643, (1r,4r)-4-(2-phenyl-1H-benzo[d]imidazole-5-sulfonamido)-N-(2-(pyridin-3-yl)ethyl)cyclohexanecarboxamide], the IC50 stood at 283 nM.

`C[C@@H](NC(=O)[C@H]1CC[C@H](NS(=O)(=O)c2cnc3c(c2)N(C(=O)COCc2ccccc2)CCN3)CC1)c1ccc(F)cc1` [Example 233, (1r,4R)-4-(1-(2-(benzyloxy)acetyl)-1,2,3,4-tetrahydropyrido[3,2-b]pyrazine-7-sulfonamido)-N-((R)-1-(4-fluorophenyl)ethyl)cyclohexanecarboxamide]: the IC50 is 965 nM.

Turning to `Cc1cc(CO)ccc1-c1cc2ccc(S(=O)(=O)N[C@H]3CC[C@H](C(=O)N4CCOCC4c4ccccc4)CC3)cc2[nH]1` (some centres unmarked) [Example 311, 2-(4-(hydroxymethyl)-2-methylphenyl)-N-((1r,4r)-4-(3-phenylmorpholine-4-carbonyl)cyclohexyl)-1H-indole-6-sulfonamide], the IC50 was under 10 nM.

Regarding `CCOc1ccc2cc(S(=O)(=O)NC3CCC(C(=O)NC(c4ccccc4)C(C)OC(=O)C(N)C(C)C)CC3)ccc2n1` [Example 271, (S)-((1S,2S)-1-((1r,4S)-1-((1r,4S)-4-(2-ethoxyquinoline-6-sulfonamido)cyclohexanecarboxamido)-1-phenylpropan-2-yl) 2-amino-3-methylbutanoate], the IC50 worked out at 195 nM.

Regarding `COCCn1c(-c2ccccc2)nc2cc(S(=O)(=O)N[C@H]3CC[C@H](C(=O)N[C@H](C)c4ccc(F)cc4)CC3)ccc21` [Example 126, (1r,4R)-N-((R)-1-(4-fluorophenyl)ethyl)-4-(1-(2-methoxyethyl)-2-phenyl-1H-benzo[d]imidazole-5-sulfonamido)cyclohexanecarboxamide], the IC50 is 71 nM.

Take `CC(C)c1nnc(-c2ccc(NS(=O)(=O)c3ccc4[nH]c(Nc5ccccc5)nc4c3)cc2)o1` [Example 601, N-(4-(5-isopropyl-1,3,4-oxadiazol-2-yl)phenyl)-2-(phenylamino)-1H-benzo[d]imidazole-5-sulfonamide]: the IC50 was determined as 539 nM.

Turning to `C[C@@H](NC(=O)[C@H]1CC[C@H](NS(=O)(=O)c2ccc3[nH]c(CC(=O)O)nc3c2)CC1)c1ccc(F)cc1` [Example 668, 2-(5-(N-((1R,4r)-4-((R)-1-(4-fluorophenyl)ethylcarbamoyl)cyclohexyl)sulfamoyl)-1H-benzo[d]imidazol-2-yl)acetic acid], the IC50 worked out at 124 nM.

For `Cc1cn(C)c2ncc(S(=O)(=O)N[C@H]3CC[C@H](C(=O)N[C@H](C)c4ccc(F)cc4)CC3)cc12` [Example 17], the IC50 amounted to 65 nM.
